# In PubChem BioAssay (NCI):
#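 Following 48 hours of exposure in 96-well plates, responses at five concentrations were used to interpolate endpoints linearly. Here, GI50 denotes the concentration required for 50% inhibition of growth. TGI is the concentration that stops growth completely.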
# Key:
# Assay in all cases: DTP human tumour cell line panel, 48 h
# [1] = tested on: ACHN renal
# [2] = tested on: EKVX NSCLC
# [3] = tested on: MDA-MB-435
# [4] = tested on: NCI-H522 lung
# [5] = tested on: NCI/ADR-RES ovarian
# [6] = tested on: OVCAR-4 ovarian
# [7] = tested on: OVCAR-5 ovarian
# [8] = tested on: SK-OV-3 ovarian
# [9] = tested on: TK-10 renal
# [10] = tested on: UO-31 renal
Compound,TGI [1] [µM],TGI [2] [µM],TGI [3] [µM],TGI [4] [µM],TGI [5] [µM],TGI [6] [µM],TGI [7] [µM],TGI [8] [µM],TGI [9] [µM],TGI [10] [µM],GI50 [1] [µM],GI50 [2] [µM],GI50 [4] [µM],GI50 [5] [µM],GI50 [6] [µM],GI50 [7] [µM],GI50 [8] [µM],GI50 [9] [µM],GI50 [10] [µM],GI50 [3] [µM]
C=CCNC(=S)/N=C/C(C(=O)Nc1ccccc1C)=C(\C)O,> 100,> 100,> 100,> 100,> 100,> 100,> 100,> 100,> 100,> 100,–,–,–,–,–,–,–,–,–,–
CN1CCC2(CC1)C(=NC1CCCCC1)NC(=O)N2c1ccccc1,> 100,> 100,–,–,> 100,–,> 100,> 100,> 100,> 100,–,–,–,–,–,–,–,–,–,–
CC1(C)CC(=O)C2=C(C1)OC1(CC2c2ccc(Cl)cc2)CC(c2ccc(Cl)cc2)C2=C(CC(C)(C)CC2=O)O1 (stereo not given),38.9,34.4,33.7,27.6,> 73.3,30.6,> 79.1,29.4,> 83.8,30.7,–,–,–,–,–,–,–,–,–,–
CCOC(=O)C(C(=O)COC(C)(C)C)[C@@H]1C=C[C@H](OC(C)=O)C1 (stereo not given in full),> 100,> 100,> 100,–,> 100,> 100,> 100,> 100,–,> 100,–,–,–,–,–,–,–,–,–,–
CN(C)CCNC(=O)c1c(O)ccc2c1c1c(n2CCc2ccccc2)C(=O)c2ccccc2C1=O,23,28.5,5.08,23,29.4,24.6,29.5,31.5,18.4,13.8,–,–,–,–,–,–,–,–,–,–
CC(C)C(NC(=O)C(Cc1ccccc1)NC(=O)[C@H]1CCC[C@H]1NC(=O)C(Cc1ccc(OC(C)(C)C)cc1)NC(=O)OC(C)(C)C)C(N)=O (stereo not given in full),> 100,> 100,34.3,30.7,> 100,65.4,36.2,57.6,72,> 100,–,–,–,–,–,–,–,–,–,–
O=C1C=C(N2CCN(CCOCCO)CC2)C(=O)c2c(O)ccc(O)c21,20.1,33.9,3.33,5.75,10.4,8.33,12.8,38.8,22.7,22.6,–,–,–,–,–,–,–,–,–,–
COc1ccc(-n2cnc3c(NC(Cc4ccccc4)C(=O)O)ncnc32)cc1 (stereo not given),> 100,> 100,> 100,–,> 100,> 100,> 100,> 100,> 100,> 100,–,–,–,–,–,–,–,–,–,–
C=CC[C@H](N=C(SC)SC)C(=O)N1C(=O)N(C)[C@@H](C)[C@H]1c1ccccc1,> 100,78.4,> 100,54.1,> 100,> 100,> 100,> 100,> 100,> 100,–,–,–,–,–,–,–,–,–,–
Cc1cc2ccc(N)nc2[nH]c1=O,> 100,> 100,> 100,> 100,> 100,–,> 100,> 100,> 100,> 100,–,–,–,–,–,–,–,–,–,–
COc1ccc(-c2n/c(=C\c3c(O)[nH]c4ccccc34)cc3c2=Nc2ccccc2-3)cc1,21.3,52,–,2.3,3.04,2.98,20.4,35.6,3.01,24.2,6.81,3.44,1.06,0.667,1.47,5.63,9.19,1.65,0.693,–
O=C(Nc1ccc2ccccc2c1)c1cc2cc(CCl)ccc2oc1=O,> 100,> 100,> 100,> 100,> 100,> 100,> 100,> 100,> 100,> 100,–,–,–,–,–,–,–,–,–,–
CCOc1cc2c(cc1O)C(N)C[C@@H]1[C@@H]2CC[C@]2(C)[C@@H](O)CC[C@@H]12 (stereo not given in full),> 100,> 100,52.4,> 100,> 100,> 100,> 100,–,> 100,> 100,–,–,–,–,–,–,–,–,–,16.2
COc1ccc2c(c1)CCC/C2=N\NS(=O)(=O)c1c(C)cc(C)cc1C,> 100,98.5,> 100,–,59.9,92.7,> 100,–,> 100,> 100,–,–,–,–,–,–,–,–,–,–
O=C(Cc1ccccc1)NN1C(=O)/C(=C\c2ccccc2O)SC1=Nc1ccccc1,> 100,> 100,> 100,–,> 100,> 100,> 100,> 100,> 100,> 100,–,–,–,–,–,–,–,–,–,–
CCOC(=O)C1=C(C)N(Cc2ccccc2)C2(O)C=CC(=O)C3=C(O)c4ccccc4C(=O)C312 (stereo not given),34.6,39.6,27.5,27.2,0.708,38.7,31.7,> 100,32.5,21.5,–,–,–,–,–,–,–,–,–,–
Cc1csc(-n2c(C)nc3cc(Cl)ccc3c2=O)n1,> 100,81.4,> 100,60.6,> 100,> 100,> 100,> 100,> 100,> 100,–,–,–,–,–,–,–,–,–,–
CN(C)CN(C)c1nc(N(C)C)nc(N(C)CN(C)C)n1,> 100,> 100,–,> 100,–,> 100,–,> 100,> 100,> 100,–,–,–,–,–,–,–,–,–,–
CC(=O)c1sc2[n+](c1C)C(=O)/C(=C\c1ccccc1Cl)S2,36,80.7,28.9,39,61.6,> 100,50.1,47.7,57.3,34,–,–,–,–,–,–,–,–,–,–
Cc1ccc(/C=C2\N=C(N3CCCC(CO)C3)NC2=O)cc1 (stereo not given),> 100,> 100,> 100,> 100,> 100,> 100,> 100,> 100,> 100,> 100,–,–,–,–,–,–,–,–,–,–
